The values below come from patent US20040191763A1, “HBV mutations associated with reduced susceptibility to adefovir” (priority 2002, published 2004).

Assay [1] deals with recombinant HBV polymerase (Hepatitis B virus genotype D subtype ayw, UniProt P03156). Particulars: competitive with respect to dATP; read-out: inhibition constant (Ki); cited from earlier work.
In assay [2] the test system is wild-type HBV (baseline patient-derived clones). The assay can be described thus: Whole HBV genome cell culture drug susceptibility assay, baseline wild-type patient-derived clones. The class given is cell-based, hepatitis B virus.
For a further assay, the system named is rtN236T mutant HBV. Nature of the assay: Whole HBV genome cell culture drug susceptibility assay, rtN236T patient-derived clones. The class given is cell-based, hepatitis B virus. The settings on record: for IC50 Fold Change (Week96/Baseline): adefovir; for susceptibility of the rtN236T mutant (in words): in vitro.
A further assay has as its system rtA181V mutant HBV. The assay can be described thus: Whole HBV genome cell culture drug susceptibility assay, rtA181V patient-derived clones. The class given is cell-based, hepatitis B virus. The settings on record: for IC50: Hepatitis B virus, HepG2, 168 h, HepG2, 7 days; for IC50 Fold Change (Week96/Baseline): adefovir. The text has this: . The rtA181V mutation appears to confer a low degree of reduced susceptibility to adefovir relative to the adefovir-resistant rtN236T mutation (7- to 14-fold resistance to adefovir in vitro). […] In contrast, serum HBV DNA in the other patient (0624-1517) remained suppressed below 1000 copies/mL after a period of treatment interruption during which this mutation was detected (FIG. 2). […] The clinical significance of the rtA181V mutation is unclear based on the in vitro drug susceptibility data and the disparate clinical profiles of the two patients, although as noted it would have diagnostic utility for HBV infection.

Assay [3] deals with rtN236T+rtA181T double mutant HBV. Nature of the assay: Adefovir susceptibility of rtN236T+rtA181T double mutant made by site-directed mutagenesis of patient-derived clone. The class given is cell-based, hepatitis B virus. The source says: (§1) One patient (0454-2506) with the rtN236T mutation also developed a second conserved site mutation rtA181T at week 96. However, all week 96 isolates derived from the patient encoding both rtN236T and rtA181T were replication deficient in vitro; the reason for this is unclear. To assess the adefovir sensitivity of HBV containing both rtN236T and rtA181Tmutations, an artificial construct was obtained by modifying an existing patient-derived HBV clone. The rtA181T mutation was introduced by site-directed mutagenesis into replicating HBV clones from patient 0454-2506 that already encoded rtN236T. The resulting double mutants were replication competent and were used for adefovir susceptibility testing. […] The rtA181T mutation was also introduced into a standard HBV lab strain (genotyped, ayw) to assess the individual contribution of the rtA181T mutation.

Assay [4] concerns wild-type lab HBV strain (ayw). Nature of the assay: Adefovir susceptibility of standard HBV lab strain, wild-type. The class given is cell-based, hepatitis B virus.
Source text: as §1

In assay [5] the test system is rtA181T mutant lab HBV strain (ayw). Nature of the assay: Adefovir susceptibility of standard HBV lab strain carrying rtA181T. The class given is cell-based, hepatitis B virus.
Source text: as §1

Assay [6] relates to rtK241E+rtK318Q mutant HBV. Nature of the assay: Whole HBV genome cell culture drug susceptibility assay, rtK241E+rtK318Q patient-derived clones. Particulars: adefovir, patient 0370-3503, rtK241E + rtK318Q.
Experimental: Drug susceptibility of patient-derived clones was analyzed by transient transfection into HepG2 cells.
To investigate if these conserved site mutations conferred resistance to adefovir, adefovir susceptibility of HBV isolates derived from the above five patients was evaluated using a whole HBV genome cell culture assay as described above.
The test system of assay [7] is serum HBV DNA. Nature of the assay: Phase 3 clinical study GS-98-438, HBeAg negative chronic hepatitis B patients. The class given is in vivo, human. Here is the method:
The median serum HBV DNA levels declined by 3.5 and 3.9 log10 copies/mL from baseline to week 48 in the ADV 10 mg dose groups in HBeAg positive (Study GS-98-437) and in HBeAg negative (Study GS-98-438) chronic hepatitis B patients, respectively.
Adefovir resistance surveillance was performed in a blinded manner in HBeAg negative chronic hepatitis B patients treated for 96 weeks in a Phase 3 double-blind, randomized, placebo-controlled clinical study (GS-98-438) of adefovir dipivoxil 10 mg (ADV). The analysis included 79 patients who received ADV 10 mg daily for the first 48 weeks and were randomized to also receive ADV 10 mg during the second 48 weeks.
The reverse transcriptase (RT) domain of the HBV polymerase gene (rt1 to rt344) was sequenced for HBV DNA extracted from baseline and week 96 serum samples (or the last on-study sample) for the 79 patients treated continuously with ADV for 96 weeks if the samples had detectable serum HBV DNA (≧1000 copies/mL by Roche Amplicor™ PCR assay) at the time points tested.
Study GS-98-438 is a randomized, double-blind, placebo-controlled Phase 3 clinical study of the safety and efficacy of ADV for the treatment of patients with HBeAg negative/anti-HBe positive/HBV DNA positive chronic hepatitis B. A total of 184 patients received at least one dose of study medication during the first 48 weeks (n=61 and 123 for the placebo and ADV 10 mg groups, respectively). During the second 48 weeks, all placebo patients switched to ADV 10 mg daily while the ADV-treated patients were re-randomized to either continue ADV or receive placebo at a 2:1 ratio. Accordingly, all patients who received at least one dose of study drug during the second 48 weeks are classified into three groups: PLB-ADV (n=60), ADV-ADV (n=79), and ADV-PLB (n=40).
A virology substudy of Study GS-98-438 included all patients in the ADV 10 mg-ADV 10 mg group (n=79). The RT domain of the HBV polymerase gene from banked serum samples from these patients was genotypically analyzed at baseline, and either at week 96, or upon early termination during the second 48 weeks.
If the week 96 serum HBV DNA value was not available for a patient, the closest serum HBV DNA value prior to week 96 was used. All week 96 and the last on-drug samples are referred to as week 96 samples hereafter. Note that Roche Molecular Systems raised the lower limit of quantification of the HBV DNA PCR assay from 400 copies/mL to 1,000 copies/mL after Gilead completed the week 48 analyses for study 438.

Assay [8] concerns serum HBV DNA. Particulars: ADV 10 mg daily, HBeAg positive patients; cited from earlier work.
The test system of assay [9] is serum HBV DNA. Particulars: ADV 10 mg daily, HBeAg negative patients; cited from earlier work.
The mark [10] stands for this setting: Hepatitis B virus, read-out: IC50 Wild-type, patient-derived HBV strain, wild-type (Table 7).
The mark [11] stands for this setting: Hepatitis B virus, read-out: IC50 rtN23T Mutant, patient-derived HBV strain carrying rtN236T (Table 7).
[12] abbreviates: patient-derived HBV strain carrying rtN236T (Table 7).
Setting [13] is: patient-derived HBV strain, wild-type (Table 7), read-out: IC50 Wild-type.
Where [14] appears, read: patient-derived HBV strain carrying rtN236T (Table 7), read-out: IC50 rtN23T Mutant.

For orientation: Ki means the dissociation constant of the complex between target and ligand, obtained from inhibition or displacement. What is called IC50 is the concentration needed to halve the response being measured.

Where two headings read alike, the source gives them in different places.

recombinant HBV polymerase, sequence (P03156 whole entry): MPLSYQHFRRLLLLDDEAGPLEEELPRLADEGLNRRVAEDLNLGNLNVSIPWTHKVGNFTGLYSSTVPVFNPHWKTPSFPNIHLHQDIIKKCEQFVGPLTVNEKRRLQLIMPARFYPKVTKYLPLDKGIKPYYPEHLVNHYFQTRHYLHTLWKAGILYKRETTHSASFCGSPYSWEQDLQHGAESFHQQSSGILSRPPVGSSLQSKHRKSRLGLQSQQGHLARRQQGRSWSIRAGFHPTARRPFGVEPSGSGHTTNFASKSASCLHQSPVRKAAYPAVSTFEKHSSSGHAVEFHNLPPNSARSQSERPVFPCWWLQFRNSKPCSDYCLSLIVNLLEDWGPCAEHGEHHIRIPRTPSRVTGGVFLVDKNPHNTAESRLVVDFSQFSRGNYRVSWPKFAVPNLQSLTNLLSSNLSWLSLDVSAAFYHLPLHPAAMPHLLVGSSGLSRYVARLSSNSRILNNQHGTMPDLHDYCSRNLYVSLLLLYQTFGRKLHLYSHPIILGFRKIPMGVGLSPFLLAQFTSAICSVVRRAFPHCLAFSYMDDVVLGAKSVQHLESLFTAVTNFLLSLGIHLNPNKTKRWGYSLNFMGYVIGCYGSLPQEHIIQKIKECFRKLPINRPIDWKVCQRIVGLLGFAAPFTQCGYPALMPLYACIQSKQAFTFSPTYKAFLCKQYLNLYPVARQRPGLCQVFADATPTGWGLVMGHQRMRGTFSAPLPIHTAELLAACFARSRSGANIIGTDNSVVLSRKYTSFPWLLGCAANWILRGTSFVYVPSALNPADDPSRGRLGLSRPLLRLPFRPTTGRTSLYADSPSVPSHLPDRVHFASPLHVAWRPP

As for `Nc1ncnc2c1ncn2CCOCP(=O)(O)OP(=O)(O)OP(=O)(O)O` [adefovir diphosphate], in assay [1], the inhibitory constant (Ki) is 100 nM.

As for `Nc1ncnc2c1ncn2CCOCP(=O)(O)O` [Adefovir, adefovir], the IC50 was found to be 160 ± 10 nM in [2] (Hepatitis B virus, HepG2, 168 h, read-out: Adefovir IC50 Baseline, patient 0370-3503, baseline clones, HepG2, 7 days); 210 ± 10 nM in assay [2] (Hepatitis B virus, HepG2, 168 h, read-out: Adefovir IC50 Baseline, patient 0454-2506, baseline wild-type clones, HepG2, 7 days); 210 ± 70 nM in assay [2] (Hepatitis B virus, HepG2, 168 h, read-out: Adefovir IC50 Baseline, patient 0624-1517, baseline clones, HepG2, 7 days); 210 ± 10 nM in assay [2] (Hepatitis B virus, HepG2, 168 h, read-out: Adefovir IC50 Baseline, patient 0624-1564, baseline clones, HepG2, 7 days); 260 ± 170 nM in assay [2] (Hepatitis B virus, HepG2, 168 h, read-out: Adefovir IC50 Baseline, patient 0626-1537, baseline clones, HepG2 transient transfection, 7 days); 150 nM in assay [2] (setting [10]). Also, the IC50 was 1550 ± 910 nM in the assay on rtN236T mutant HBV (Hepatitis B virus, HepG2, 168 h, read-out: Adefovir IC50 Week 96, patient 0454-2506, week 96 clones with single rtN236T, HepG2, 7 days); 3640 ± 2780 nM in the assay with rtN236T mutant HBV (Hepatitis B virus, HepG2, 168 h, read-out: Adefovir IC50 Week 96, patient 0626-1537, week 96 rtN236T clones, HepG2, 7 days); 1470 nM with rtN236T mutant HBV (setting [11]); 520 ± 110 nM in the assay with rtA181V mutant HBV (read-out: Adefovir IC50 Week 96, patient 0624-1517, week 96 rtA181V clones); 620 ± 290 nM in the assay with rtA181V mutant HBV (read-out: Adefovir IC50 Week 96, patient 0624-1564, week 96 rtA181V clones); 530 ± 260 nM in assay [3] (Hepatitis B virus, patient 0454-2506 derived clone, rtN236T + rtA181T (rtA181T introduced by site-directed mutagenesis)). Besides, the IC50 was 190 ± 30 nM in assay [4] (Hepatitis B virus, lab HBV strain, wild-type) and 240 ± 30 nM in assay [5] (Hepatitis B virus). In addition, the “IC50 Fold Change from Wild-Type” value in assay [2] (adefovir, patient 0454-2506 wild-type (baseline), reference) amounted to 1 fold; in assay [3] (adefovir, patient 0454-2506 derived, rtN236T + rtA181T), 2.5 fold; in assay [4] (adefovir, lab HBV strain wild-type, reference), 1 fold; in assay [5] (adefovir) it was 1.3 fold. Besides, the “IC50 Fold Change (Week96/Baseline)” value is on record as 7.3 fold in the assay on rtN236T mutant HBV (patient 0454-2506, single rtN236T); 13.8 fold with rtN236T mutant HBV (patient 0626-1537, rtN236T); 2.5 fold with rtA181V mutant HBV (patient 0624-1517, rtA181V); 3.0 fold with rtA181V mutant HBV (patient 0624-1564, rtA181V); 0.9 fold in assay [6]; “less than 0.9 fold” in assay [6] (listed as adefovir). Further, the “IC50 Fold Change (rtN236T/Wild-type)” value in the assay with rtN236T mutant HBV (setting [12]) stood at 9.6 fold.

For `Cc1cn([C@@H]2C[C@@H](O)[C@H](CO)O2)c(=O)[nH]c1=O` [L-dT], the concentration for half-maximal inhibition (IC50) in assay [2] (setting [13]) was 140 nM; in the assay on rtN236T mutant HBV (setting [14]) it was 330 nM. Moreover, the “susceptibility of the rtN236T mutant (in words)” value with rtN236T mutant HBV is “remained susceptible”. Besides, the “IC50 Fold Change (rtN236T/Wild-type)” value in the assay on rtN236T mutant HBV (setting [12]) is recorded as 2.4 fold.

For `C=C1[C@H](CO)[C@@H](O)C[C@@H]1n1cnc2c(=O)[nH]c(N)nc21` [Entecavir, entecavir], the IC50 in assay [2] (setting [10]) was 0.39 nM; in the assay on rtN236T mutant HBV (setting [11]), 0.26 nM. Besides, the “susceptibility of the rtN236T mutant (in words)” value with rtN236T mutant HBV was “remained susceptible”. Moreover, the “IC50 Fold Change (rtN236T/Wild-type)” value in the assay on rtN236T mutant HBV (setting [12]) came out at 0.67 fold.

On to `Nc1ccn([C@@H]2CS[C@H](CO)O2)c(=O)n1` [Lamivudine, lamivudine], for which the IC50 turned out to be 70 nM with rtN236T mutant HBV (setting [11]) and 70 nM in the assay on rtN236T mutant HBV (Hepatitis B virus, read-out: Lamivudine IC50 Week 96, patient 0454-2506, week 96 clones with single rtN236T). The “lamivudine IC50 change” value with rtN236T mutant HBV (rtN236T mutant in vitro) is not above 3.5 fold.

In the case of `COc1ccc(Sc2nc(N)nc3c2ncn3CCOCP(=O)(OCC(F)(F)F)OCC(F)(F)F)cc1` [MCC-478], the figures for the 50% inhibitory concentration (IC50) (in assay [2] (setting [10]); in the assay on rtN236T mutant HBV (setting [11])) were 30 nM and 250 nM, respectively. Also, the “IC50 Fold Change (rtN236T/Wild-type)” value in the assay with rtN236T mutant HBV (setting [12]) was 8.6 fold.

With `CC(C)(C)C(=O)OCOP(=O)(COCCn1cnc2c(N)ncnc21)OCOC(=O)C(C)(C)C` [ADV, adefovir dipivoxil], the “serum HBV reduction from baseline after initiation of therapy” value in the assay with serum HBV DNA [7] (both patients who developed rtN236T (0626-1537, 0454-2506)) is on record as “less than 2 log10 copies/mL”. The “patients with serum HBV DNA levels <1000 copies/mL at week 96 (or last on-study visit)” value in the assay on serum HBV DNA [7] (of 79 patients, ADV 10 mg daily for 96 weeks) was determined as 58 patients. Besides, the “reduction in serum HBV DNA” value in the assay with serum HBV DNA [7] (patient 0370-3503 (rtK241E+rtK318Q), week 96) is reported as more than 5 log10. In addition, the “serum HBV DNA” value with serum HBV DNA [7] (patient 0370-3503, week 96) is on record as 3.1 log10 copies/mL; in the assay on serum HBV DNA [7] (patient 0370-3503, week 156), 3.6 log10 copies/mL. For the same compound, the “median serum HBV DNA decline from baseline to week 48” value is reported as 3.5 log10 copies/mL in the assay with serum HBV DNA [8] and 3.9 log10 copies/mL in the assay with serum HBV DNA [9].

Consider `C[C@H](Cn1cnc2c(N)ncnc21)OCP(=O)(O)O` [Tenofovir, tenofovir], for which the IC50 was found to be 130 nM in [2] (setting [13]) and 550 nM in the assay with rtN236T mutant HBV (setting [14]). Besides, in the assay with rtN236T mutant HBV (setting [12]), the “IC50 Fold Change (rtN236T/Wild-type)” value is reported as 4.2 fold.
